In PubChem BioAssay (NCI):
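Method: 48-hour compound exposure of cells in 96-well plates, five concentrations, linear interpolation of endpoints. TGI: concentration producing complete growth inhibition.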

Key:
Assay in all cases: NCI tumour cell line growth inhibition, 48 h
P388/ADR leukemia = system: P388/ADR leukemia
SR leukemia = system: SR leukemia
U251 CNS = system: U251 CNS
HCT-15 colon = system: HCT-15 colon
MALME-3M melanoma = system: MALME-3M melanoma
DMS 273 small cell lung = system: DMS 273 small cell lung
MDA-MB-435 = system: MDA-MB-435
HOP-62 NSCLC = system: HOP-62 NSCLC
SNB-19 CNS = system: SNB-19 CNS
M19-MEL melanoma = system: M19-MEL melanoma
TK-10 renal = system: TK-10 renal
ACHN renal = system: ACHN renal
UO-31 renal = system: UO-31 renal
MDA-MB-231 breast = system: MDA-MB-231 breast
DMS 114 small cell lung = system: DMS 114 small cell lung
HL-60(TB) leukemia = system: HL-60(TB) leukemia
A549 NSCLC = system: A549 NSCLC
OVCAR-4 ovarian = system: OVCAR-4 ovarian
RXF-631 renal = system: RXF-631 renal
MOLT-4 leukemia = system: MOLT-4 leukemia
CAKI-1 renal = system: CAKI-1 renal
NCI-H23 lung = system: NCI-H23 lung
BT-549 breast = system: BT-549 breast
SK-MEL-2 melanoma = system: SK-MEL-2 melanoma
HT29 colon = system: HT29 colon
RXF 393 renal = system: RXF 393 renal
KM12 colon = system: KM12 colon
UACC-62 melanoma = system: UACC-62 melanoma
HOP-18 NSCLC = system: HOP-18 NSCLC
SK-MEL-28 melanoma = system: SK-MEL-28 melanoma
P388 leukemia = system: P388 leukemia
SF-539 CNS = system: SF-539 CNS
SK-OV-3 ovarian = system: SK-OV-3 ovarian
SN12K1 renal = system: SN12K1 renal
OVCAR-8 ovarian = system: OVCAR-8 ovarian
SK-MEL-5 melanoma = system: SK-MEL-5 melanoma
SF-268 CNS = system: SF-268 CNS
IGROV1 ovarian = system: IGROV1 ovarian
DLD-1 colon = system: DLD-1 colon
EKVX NSCLC = system: EKVX NSCLC
MCF7 breast = system: MCF7 breast
MDA-N = system: MDA-N
786-0 renal = system: 786-0 renal
NCI-H460 lung = system: NCI-H460 lung
UACC-257 melanoma = system: UACC-257 melanoma
NCI-H226 lung = system: NCI-H226 lung
K-562 leukemia = system: K-562 leukemia
LOX IMVI melanoma = system: LOX IMVI melanoma
CCRF-CEM leukemia = system: CCRF-CEM leukemia
HCT-116 colon = system: HCT-116 colon
SW-620 colon = system: SW-620 colon
HS 578T breast = system: HS 578T breast
RPMI-8226 leukemia = system: RPMI-8226 leukemia
KM20L2 colon = system: KM20L2 colon
NCI-H522 lung = system: NCI-H522 lung
COLO 205 colon = system: COLO 205 colon
HCC-2998 colon = system: HCC-2998 colon
A498 renal = system: A498 renal
SNB-75 CNS = system: SNB-75 CNS
T-47D breast = system: T-47D breast
NCI/ADR-RES ovarian = system: NCI/ADR-RES ovarian
M14 melanoma = system: M14 melanoma
XF 498 CNS = system: XF 498 CNS
HOP-92 NSCLC = system: HOP-92 NSCLC
LXFL 529 NSCLC = system: LXFL 529 NSCLC
SF-295 CNS = system: SF-295 CNS
OVCAR-3 ovarian = system: OVCAR-3 ovarian
DU-145 prostate = system: DU-145 prostate
SN12C renal = system: SN12C renal
PC-3 prostate = system: PC-3 prostate
SNB-78 CNS = system: SNB-78 CNS
OVCAR-5 ovarian = system: OVCAR-5 ovarian

O=C(CCBr)N1CCN(C(=O)CCBr)CC1
TGI (P388/ADR leukemia): 181 µM | TGI (SR leukemia): 174 µM | TGI (U251 CNS): 114 µM | TGI (HCT-15 colon): 222 µM | TGI (MALME-3M melanoma): 206 µM | TGI (DMS 273 small cell lung): 168 µM | TGI (MDA-MB-435): 245 µM | TGI (HOP-62 NSCLC): 155 µM | TGI (SNB-19 CNS): 198 µM | TGI (M19-MEL melanoma): 252 µM | TGI (TK-10 renal): 488 µM | TGI (ACHN renal): 316 µM | TGI (UO-31 renal): 293 µM | TGI (MDA-MB-231 breast): 242 µM | TGI (DMS 114 small cell lung): 140 µM | TGI (HL-60(TB) leukemia): 206 µM | TGI (A549 NSCLC): 140 µM | TGI (OVCAR-4 ovarian): 181 µM | TGI (RXF-631 renal): 134 µM | TGI (MOLT-4 leukemia): 215 µM | TGI (CAKI-1 renal): 168 µM | TGI (NCI-H23 lung): 150 µM | TGI (BT-549 breast): 85.3 µM | TGI (SK-MEL-2 melanoma): 221 µM | TGI (HT29 colon): 280 µM | TGI (RXF 393 renal): 150 µM | TGI (KM12 colon): 181 µM | TGI (UACC-62 melanoma): 73.3 µM | TGI (HOP-18 NSCLC): 238 µM | TGI (SK-MEL-28 melanoma): 252 µM | TGI (P388 leukemia): 293 µM | TGI (SF-539 CNS): 168 µM | TGI (SK-OV-3 ovarian): 212 µM | TGI (SN12K1 renal): 196 µM | TGI (OVCAR-8 ovarian): 246 µM | TGI (SK-MEL-5 melanoma): 149 µM | TGI (SF-268 CNS): 153 µM | TGI (IGROV1 ovarian): 245 µM | TGI (DLD-1 colon): 202 µM | TGI (EKVX NSCLC): 212 µM | TGI (MCF7 breast): 215 µM | TGI (MDA-N): 225 µM | TGI (786-0 renal): 191 µM | TGI (NCI-H460 lung): 113 µM | TGI (UACC-257 melanoma): 246 µM | TGI (NCI-H226 lung): 201 µM | TGI (K-562 leukemia): 459 µM | TGI (LOX IMVI melanoma): 165 µM | TGI (CCRF-CEM leukemia): 257 µM | TGI (HCT-116 colon): 151 µM | TGI (SW-620 colon): 218 µM | TGI (HS 578T breast): 455 µM | TGI (RPMI-8226 leukemia): 394 µM | TGI (KM20L2 colon): 277 µM | TGI (NCI-H522 lung): 146 µM | TGI (COLO 205 colon): 225 µM | TGI (HCC-2998 colon): 140 µM | TGI (A498 renal): 165 µM | TGI (SNB-75 CNS): 180 µM | TGI (T-47D breast): 232 µM | TGI (NCI/ADR-RES ovarian): 221 µM | TGI (M14 melanoma): 131 µM | TGI (XF 498 CNS): 133 µM | TGI (HOP-92 NSCLC): 284 µM | TGI (LXFL 529 NSCLC): 137 µM | TGI (SF-295 CNS): 212 µM | TGI (OVCAR-3 ovarian): 218 µM | TGI (DU-145 prostate): 496 µM | TGI (SN12C renal): 169 µM | TGI (PC-3 prostate): 500 µM | TGI (SNB-78 CNS): 295 µM | TGI (OVCAR-5 ovarian): 189 µM
